Target: T1, Human Recombinant Matriptase 2 (Homo sapiens, UniProt Q8IU80)
T1 construct: made in house
T1 sequence (Q8IU80 1-811): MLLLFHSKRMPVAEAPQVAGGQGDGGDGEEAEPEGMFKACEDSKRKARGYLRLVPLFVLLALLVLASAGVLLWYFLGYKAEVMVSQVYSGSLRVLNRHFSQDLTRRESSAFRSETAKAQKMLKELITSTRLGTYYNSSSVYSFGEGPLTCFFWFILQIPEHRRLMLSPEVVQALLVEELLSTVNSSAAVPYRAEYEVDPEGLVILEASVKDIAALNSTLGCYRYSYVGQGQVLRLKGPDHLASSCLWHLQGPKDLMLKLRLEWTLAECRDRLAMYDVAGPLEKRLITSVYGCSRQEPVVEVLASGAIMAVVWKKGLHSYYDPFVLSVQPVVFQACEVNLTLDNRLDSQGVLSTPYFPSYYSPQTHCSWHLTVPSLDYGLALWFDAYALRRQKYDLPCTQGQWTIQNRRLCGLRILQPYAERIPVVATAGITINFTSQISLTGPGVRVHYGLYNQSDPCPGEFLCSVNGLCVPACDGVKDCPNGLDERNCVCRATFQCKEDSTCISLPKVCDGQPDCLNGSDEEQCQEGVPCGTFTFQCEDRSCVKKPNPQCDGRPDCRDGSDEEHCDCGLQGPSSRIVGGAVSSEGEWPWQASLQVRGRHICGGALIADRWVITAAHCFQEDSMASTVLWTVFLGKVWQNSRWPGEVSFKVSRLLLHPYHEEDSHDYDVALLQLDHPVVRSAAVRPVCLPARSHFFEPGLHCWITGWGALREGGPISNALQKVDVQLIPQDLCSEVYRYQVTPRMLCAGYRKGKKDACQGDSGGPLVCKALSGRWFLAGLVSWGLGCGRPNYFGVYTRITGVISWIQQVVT
Assay: Matriptase 2 inhibition, fluorescence based assay (Method I)
Format: biochemical
Settings: Table A; Ki of Matriptase-2, class symbols; read-out: Mat-2 Ki
Method in brief: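 Fluorogenic readout (Ex 360/Em 480 nm) taken 60 min after adding 62 μM Boc-Gln-Ala-Arg-AMC, following 30-min enzyme–compound preincubation at 25 °C. Conditions: 3.5 nM in-house enzyme, pH 7.5 Tris/NaCl/gelatin buffer, 1% DMSO; percent inhibition versus concentration fitted by variable-slope sigmoidal regression.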

Ki	Compound
100 to 500 nM	NCc1ccc2cc(-c3nnn[nH]3)n(Cc3cc(NS(=O)(=O)CC[C@@H]4CCCN4)cc4ccccc34)c2c1 [Compound 399, (S)—N-(4-((6-(aminomethyl)-2-(1H-tetrazol-5-yl)-1H-indol-1-yl)methyl)naphthalen-2-yl)-2-(pyrrolidin-2-yl) ethane-1-sulfonamide]

Same assay, conditions: Table A; Ki of Matriptase-2 given as class symbols; read-out: Mat-2 Ki

Ki	Compound
100 to 500 nM	NCc1ccc2cc(C(=O)Nc3nnn[nH]3)n(Cc3cc(NS(=O)(=O)Cc4ccccc4)cc4ccccc34)c2c1 [Compound 372, 6-(aminomethyl)-1-((3-((phenylmethyl)sulfonamido)naphthalen-1-yl)methyl)-N-(1H-tetrazol-5-yl)-1H-indole-2-carboxamide]
≤ 100 nM	Cc1cccc(C)c1CS(=O)(=O)Nc1cc(Cn2c(C(=O)NCCC3CCN(C)CC3)cc3ccc(CN)cc32)c2ccccc2c1 [Compound 373, 6-(aminomethyl)-1-({3-[(2,6-dimethylphenyl)-methanesulfonamido]-naphthalen-1-yl}methyl)-N-[2-(1-methylpiperidin-4-yl)ethyl]-1H-indole-2-carboxamide]
≤ 100 nM	CN1CCC(COC(=O)c2cc3ccc(CN)cc3n2Cc2cc(NS(=O)(=O)Cc3ccsc3)cc3ccccc23)CC1 [Compound 374, (1-methylpiperidin-4-yl)-methyl 6-(aminomethyl)-1-({3-[(thiophen-3-yl)-methanesulfonamido]-naphthalen-1-yl}methyl)-1H-indole-2-carboxylate]
≤ 100 nM	Cc1cccc(C)c1CS(=O)(=O)Nc1cc(Cn2c(C(=O)OCC3CCN(C)CC3)cc3ccc(CN)cc32)c2ccccc2c1 [Compound 375, (1-methylpiperidin-4-yl)-methyl 6-(aminomethyl)-1-({3-[(2,6-dimethyl-phenyl)methanesulfon-amido)naphthalen-1-yl}-methyl)-1H-indole-2-carboxylate]
≤ 100 nM	CN1CCC(COC(=O)c2cc3ccc(CN)cc3n2Cc2cc(NS(=O)(=O)Cc3ccccc3)cc3ccccc23)CC1 [Compound 376, (1-methylpiperidin-4-yl)-methyl 6-(aminomethyl)-1-1{[3-(phenylmethane-sulfonamido)naphthalen-1-yl]methyl}-1H-indole-2-carboxylate]
≤ 100 nM	Cc1cccc(C)c1CS(=O)(=O)Nc1cc(Cn2c(C(=O)OCCC3CCN(C)CC3)cc3ccc(CN)cc32)c2ccccc2c1 [Compound 377, 2-(1-methylpiperidin-4-yl)ethyl 6-(aminometh-yl)-1-({3-[(2,6-dimethyl-phenyl)methanesulfon-amido]naphthalen-1-yl}-methyl)-1H-indole-2-carboxylate]
≤ 100 nM	C[C@H](c1ccccc1)S(=O)(=O)Nc1cc(Cn2c(C(=O)OCC3CCN(C)CC3)cc3ccc(CN)cc32)c2ccccc2c1 [Compound 378, (1-methylpiperidin-4-yl)-methyl 6-(aminomethyl)-1-({3-[(1R)-1-phenyl-ethane-sulfonamido]-naphthalen-1-yl}methyl)-1H-indole-2-carboxylate]
≤ 100 nM	CN1CCC(COC(=O)c2cc3ccc(CN)cc3n2Cc2cc(NS(=O)(=O)Cc3cccs3)cc3ccccc23)CC1 [Compound 379, (1-methylpiperidin-4-yl)-methyl 6-(aminomethyl)-1-({3-[(thiophen-2-yl)-methanesulfonamido]-naphthalen-1-yl}meth-yl)-1H-indole-2-carbox-ylate]
≤ 100 nM	Cn1ccnc1COC(=O)c1cc2ccc(CN)cc2n1Cc1cc(NS(=O)(=O)Cc2ccsc2)cc2ccccc12 [Compound 381, (1-methyl-1H-imidazol-2-yl)methyl 6-(amino-methyl)-1-({3-[(thio-phen-3-yl)methanesulfon-amido]naphthalen-1-yl}-methyl)-1H-indole-2-carboxylate]
≤ 100 nM	Cn1ccnc1COC(=O)c1cc2ccc(CN)cc2n1Cc1cc(NS(=O)(=O)Cc2ccccc2)cc2ccccc12 [Compound 383, (1-methyl-1H-imidazol-2-yl)methyl 6-(amino-methyl)-1-{[3-(phenyl-methanesulfonamido)-naphthalen-1-yl]meth-yl}-1H-indole-2-carbox-ylate]
100 to 500 nM	CN(C)CCCCOC(=O)c1cc2ccc(CN)cc2n1Cc1cc(NS(=O)(=O)Cc2ccccc2)cc2ccccc12 [Compound 384, 4-(dimethylamino)butyl 6-(aminomethyl)-1-{[3-(phenylmethanesulfon-amido)naphthalen-1-yl]-methyl}-1H-indole-2-carboxylate]
100 to 500 nM	CC(C)(C)n1cncc1COC(=O)c1cc2ccc(CN)cc2n1Cc1cc(NS(=O)(=O)Cc2ccsc2)cc2ccccc12 [Compound 385, (1-tert-butyl-1H-imid-azol-5-yl)methyl 6-(aminomethyl)-1-({3-[(thiophen-3-yl)methane-sulfonamido]naphthalen-1-yl}methyl)-1H-indole-2-carboxylate]
100 to 500 nM	CC(C)(C)n1cncc1COC(=O)c1cc2ccc(CN)cc2n1Cc1cc(NS(=O)(=O)Cc2ccccc2)cc2ccccc12 [Compound 386, (1-tert-butyl-1H-imid-azol-5-yl)methyl 6-(aminomethyl)-1-{[3-(phenylmethanesulfon-amido)naphthalen-1-yl]-methyl}-1H-indole-2-carboxylate]
100 to 500 nM	C[C@@H](c1ccccc1)S(=O)(=O)Nc1cc(Cn2c(C(=O)OCC3CCN(C)CC3)cc3ccc(CN)cc32)c2ccccc2c1 [Compound 387, (1-methylpiperidin-4-yl)-methyl 6-(aminomethyl)-1-({3-[(1S)-1-phenyl-ethanesulfonamido]-naphthalen-1-yl}methyl)-1H-indole-2-carboxylate]
100 to 500 nM	COCCN1CCN(CCS(=O)(=O)Nc2cc(Cn3c(C(=O)O)cc4ccc(CN)cc43)c3ccccc3c2)CC1 [Compound 388, 6-(aminomethyl)-1-[(3-{2-[4-(2-methoxyethyl)-piperazin-1-yl]ethanesul-fonamido}naphthalen-1-yl)methyl]-1H-indole-2-carboxylic acid]
100 to 500 nM	NCc1ccc2cc(C(=O)O)n(Cc3cc(NS(=O)(=O)CC[C@@H]4CCCN4)cc4ccccc34)c2c1 [Compound 389, 6-(aminomethyl)-1-[(3-{2-[(2S)-pyrrolidin-2-yl]ethanesulfonamido}-naphthalen-1-yl)methyl]-1H-indole-2-carboxylic acid]
100 to 500 nM	COCCN1CCC(CS(=O)(=O)Nc2cc(Cn3c(C(=O)O)cc4ccc(CN)cc43)c3ccccc3c2)CC1 [Compound 390, 6-(aminomethyl)-1-[(3-{[1-(2-methoxyethyl)-piperidin-4-yl]methane-sulfonamido}naphthalen-1-yl)methyl]-1H-indole-2-carboxylic acid]
500 to 3000 nM	NCc1ccc2cc(C(=O)O)n(Cc3cc(NS(=O)(=O)CC4CCC(C(F)(F)F)CC4)cc4ccccc34)c2c1 (centres unmarked) [Compound 392]
500 to 3000 nM	NCc1ccc2cc(C(=O)O)n(Cc3cc(NS(=O)(=O)N4CCC(C(F)(F)F)CC4)cc4ccccc34)c2c1 [Compound 393, 6-(aminomethyl)-1-{[3-({[4-(trifluoromethyl)-piperidin-1-yl]sulfonyl}-amino)naphthalen-1-yl]-methyl}-1H-indole-2-carboxylic acid]
500 to 3000 nM	COCCN1CCN(C(=O)Nc2cc(Cn3c(C(=O)O)cc4ccc(CN)cc43)c3ccccc3c2)CC1 [Compound 394, 6-(aminomethyl)-1-((3-(4-(2-methoxyethyl)piperazine-1-carboxamido)naphthalen-1-yl)methyl)-1H-indole-2-carboxylic acid]
100 to 500 nM	CC(C)(C)S(=O)(=O)N1CCC(CNC(=O)Nc2cc(Cn3c(C(=O)O)cc4ccc(CN)cc43)c3ccccc3c2)CC1 [Compound 396, 6-(aminomethyl)-1-({3-[({[1-(2-methylpropane-2-sulfonyl)piperidin-4-yl]methyl}carbamoyl)-amino]naphthalen-1-yl}-methyl)-1H-indole-2-carboxylic acid]
100 to 500 nM	CS(=O)(=O)N1CCC(CNC(=O)Nc2cc(Cn3c(C(=O)O)cc4ccc(CN)cc43)c3ccccc3c2)CC1 [Compound 397, 6-(aminomethyl)-1-{[3-({[(1-methanesulfonyl-piperidin-4-yl)methyl]-carbamoyl}amino)naph-thalen-1-yl]methyl}-1H-indole-2-carboxylic acid]

Source: patent US20240400553A1, “AMINE BASED MATRIPTASE 2 INHIBITORS AND USES THEREOF” (Disc Medicine, Inc., priority 2023, published 2024)
